Assay: Curcumin administration test (A) in HFD-challenged mice: plasma TCHO, CM, LDL (Test Example 11)
Type: in vivo, mice (C57BL/6)
Conditions: HFD-challenged C57BL/6 mice, ad libitum drinking of aqueous liquid for 12 weeks
Procedure: In this test, total cholesterol (TCHO), chylomicron (CM), and LDL cholesterol (LDL) were measured. […] After the feeding period, blood was sampled and centrifuged at […] at 4° C. for 15 minutes to obtain plasma. The plasma was measured by a Fuji Dri-Chem 4000V biochemical automatic analyzer (Fujifilm, Tokyo, Japan).

CC(C)(Oc1ccc(CCNC(=O)c2ccc(Cl)cc2)cc1)C(=O)O [Bezafibrate]
CM (chylomicron) in plasma: 0.53 mg/dL | LDL (LDL cholesterol) in plasma: 17.9 mg/dL | TCHO (total cholesterol) in plasma: 125.0 mg/dL

Reference: patent US20200009211A1, “CURCUMIN-CONTAINING MEDICINAL PREPARATION” (SAN-EI GEN F.F.I., INC., priority 2017, published 2020)
